From ChEMBL document CHEMBL1201862, “PubChem BioAssay data set” (2004)
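Exposure lasted 48 hours, with cells grown in 96-well plates and compounds tested at five concentrations. GI50 = concentration required for 50% inhibition of growth.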 Activity calls are given as the source filed them. No stated cut-off is given here; in the data, active = GI50 up to about 1.1 µM and inactive = higher.

How the values were obtained:
Assay in all cases: NCI-60 cell line screen, 48 h
RPMI-8226 = test system: RPMI-8226
DU-145 = test system: DU-145
SK-MEL-5 = test system: SK-MEL-5
786-0 = test system: 786-0
UACC-62 = test system: UACC-62
SW-620 = test system: SW-620
NCI-H226 = test system: NCI-H226
NCI-H460 = test system: NCI-H460
COLO 205 = test system: COLO 205
NCI-H522 = test system: NCI-H522
SF-295 = test system: SF-295
OVCAR-4 = test system: OVCAR-4
SNB-75 = test system: SNB-75
HCC 2998 = test system: HCC 2998
SK-OV-3 = test system: SK-OV-3
MOLT-4 = test system: MOLT-4
HOP-62 = test system: HOP-62
NCI-H23 = test system: NCI-H23
MDA-N = test system: MDA-N
HOP-92 = test system: HOP-92

| Structure (SMILES) | GI50 (RPMI-8226) | GI50 (DU-145) | GI50 (SK-MEL-5) | GI50 (786-0) | GI50 (UACC-62) | GI50 (SW-620) | GI50 (NCI-H226) | GI50 (NCI-H460) | GI50 (COLO 205) | GI50 (NCI-H522) | GI50 (SF-295) | GI50 (OVCAR-4) | GI50 (SNB-75) | GI50 (HCC 2998) | GI50 (SK-OV-3) | GI50 (MOLT-4) | GI50 (HOP-62) | GI50 (NCI-H23) | GI50 (MDA-N) | GI50 (HOP-92) |
| --- | --- | --- | --- | --- | --- | --- | --- | --- | --- | --- | --- | --- | --- | --- | --- | --- | --- | --- | --- | --- |
| C/C(=N\Nc1nc2ccccc2s1)c1cccnn1 | 1.4 µM (inactive) | 1.92 µM (inactive) | 1.31 µM (inactive) | 1.26 µM (inactive) | 2.7 µM (inactive) | 3.69 µM (inactive) | 2.75 µM (inactive) | 2.65 µM (inactive) | 2.48 µM (inactive) | 1.72 µM (inactive) | 2.31 µM (inactive) | 76 µM (inactive) | 5.5 µM (inactive) | 13.2 µM (inactive) | 4.29 µM (inactive) | 3.91 µM (inactive) | 1.63 µM (inactive) | 2.61 µM (inactive) | 8.63 µM (inactive) | 2.32 µM (inactive) |
| O=C(O)c1cc2c(cc1CC(Cc1ccc3c(c1)CCCC3)C(=O)O)CCCC2 (stereo not given) | 63.2 µM (inactive) | > 100 µM (inactive) | > 100 µM (inactive) | > 100 µM (inactive) | > 100 µM (inactive) | > 100 µM (inactive) | 54.3 µM (inactive) | > 100 µM (inactive) | > 100 µM (inactive) | 31.2 µM (inactive) | > 100 µM (inactive) | < 0.01 µM (active) | > 100 µM (inactive) | 32.9 µM (inactive) | > 100 µM (inactive) | 59.8 µM (inactive) | > 100 µM (inactive) | > 100 µM (inactive) | > 100 µM (inactive) | 83 µM (inactive) |
| NN | 303 µM (inactive) | 793 µM (inactive) | 594 µM (inactive) | 204 µM (inactive) | 358 µM (inactive) | 235 µM (inactive) | 481 µM (inactive) | 188 µM (inactive) | 328 µM (inactive) | 335 µM (inactive) | 574 µM (inactive) | 625 µM (inactive) | 851 µM (inactive) | 1040 µM (inactive) | 1240 µM (inactive) | 193 µM (inactive) | 259 µM (inactive) | 359 µM (inactive) | 150 µM (inactive) | 525 µM (inactive) |
| CCCCCc1cc2c(cc1O)CC[C@@H]1[C@@H]2CC[C@]2(C)[C@@H](O)CC[C@@H]12 | 19.1 µM (inactive) | 16.4 µM (inactive) | 19.8 µM (inactive) | 14.8 µM (inactive) | 19.2 µM (inactive) | 26.4 µM (inactive) | 14.5 µM (inactive) | 17.4 µM (inactive) | 16.1 µM (inactive) | 18.8 µM (inactive) | 13.4 µM (inactive) | 21.6 µM (inactive) | 13.5 µM (inactive) | 24.3 µM (inactive) | 21.8 µM (inactive) | 24.3 µM (inactive) | 22.4 µM (inactive) | 21.3 µM (inactive) | 17.9 µM (inactive) | 14.3 µM (inactive) |
| Nc1ccn(CC(O)c2cc3ccccc3[nH]2)c(=O)n1 (stereo not given) | > 100 µM (inactive) | > 100 µM (inactive) | > 100 µM (inactive) | > 100 µM (inactive) | > 100 µM (inactive) | > 100 µM (inactive) | > 100 µM (inactive) | > 100 µM (inactive) | > 100 µM (inactive) | > 100 µM (inactive) | > 100 µM (inactive) | > 100 µM (inactive) | > 100 µM (inactive) | > 100 µM (inactive) | > 100 µM (inactive) | > 100 µM (inactive) | > 100 µM (inactive) | > 100 µM (inactive) | > 100 µM (inactive) | > 100 µM (inactive) |
| C=CCNC(=S)N/N=C1\C(=O)N(CN2CCOCC2)c2ccc([N+](=O)[O-])cc21 | 33 µM (inactive) | 18.7 µM (inactive) | 9.73 µM (inactive) | 15.6 µM (inactive) | > 100 µM (inactive) | 61.5 µM (inactive) | > 100 µM (inactive) | 4.16 µM (inactive) | 34.4 µM (inactive) | 41.4 µM (inactive) | 7.98 µM (inactive) | 22.7 µM (inactive) | 24.3 µM (inactive) | 12.9 µM (inactive) | 36.5 µM (inactive) | 5.98 µM (inactive) | 20.6 µM (inactive) | 44.9 µM (inactive) | 30.8 µM (inactive) | 13.3 µM (inactive) |
| CS[C@]12C(=O)C[C@@]3(C)[C@@H](CC[C@]3(O)C(=O)CO)[C@@H]1CCC1=CC(=O)CC[C@@]12C | 30.1 µM (inactive) | > 100 µM (inactive) | > 100 µM (inactive) | > 100 µM (inactive) | > 100 µM (inactive) | 68.5 µM (inactive) | > 100 µM (inactive) | > 100 µM (inactive) | > 100 µM (inactive) | 47.9 µM (inactive) | > 100 µM (inactive) | > 100 µM (inactive) | > 100 µM (inactive) | 26.9 µM (inactive) | > 100 µM (inactive) | 49.8 µM (inactive) | > 100 µM (inactive) | > 100 µM (inactive) | 26.6 µM (inactive) | > 100 µM (inactive) |
